# Experiments:
# [1] = tested on: A549 (lung cancer) cells; assay: Cell migration, phase-contrast video microscopy; assay type: cell-based, human
# Protocol: (§1) Cells of different cancer lines, i.e. U-373 MG (Glioma cancer), Hs578T (breast cancer) and A549 (lung cancer) were seeded on culture flask 48 hours before the migration experiment. On the test day, cells were treated with or without compounds UBS881, UBS1664, UBS3285, UBS3327 and UBS3328 in closed Falcon dishes containing a buffered medium at a controlled temperature (37.0±0.1° C.) for 12 or 24 hours. The compounds were administered at two non-cytotoxic concentrations (10^−6 M and 10^−7 M) for UBS881 and UBS1664, and at 4 concentrations (10^−7 M to 10^−10 M) for UBS3285, UBS3327 and UBS3328. Migration of the cells was observed by means of a CCD-camera mounted on a phase-contrast microscope. A statistical analyse of the migration, with the non-parametric Mann-Whitney test, was established for 25% of the most motile cells and for the entire cell population for UBS881 and UBS1664, and established for 25%-50% of the most motile cells and for the entire cell population for UBS3285, UBS3327 and UBS3328 compounds. The table F below illustrates the anti-migratory effect of the compound according to the invention.
# [2] = tested on: Hs578T (breast cancer) cells; assay: Cell migration, phase-contrast video microscopy; assay type: cell-based; settings: for 24 hours on the 25% of most motile cells, at 10^−7 M
# Protocol: as §1
# [3] = tested on: U-373 MG, Hs578T and/or A549 cancer cells; assay: Cell migration, summary over the cell lines; assay type: cell-based; settings: at the weak studied concentrations; result in words
# Protocol: as §1
# [4] = tested on: U-373 MG (Glioma cancer) cells; assay: Cell migration, phase-contrast video microscopy; assay type: cell-based, human
# Protocol: as §1
# [5] = tested on: six human cancer cell lines (Hs683, U-373 MG, HCT-15, LoVo, A549, J82); assay: MTT test, summary over the six cell lines; assay type: cell-based; settings: for cytotoxic / anti-tumor activity on the 6 tested cell lines: result in words, FIGS. 3, 4 and 6
# Protocol: In order to characterize the in vitro activities of the compounds according to the invention, MTT tests were carried out. The MTT test, which is a well-known test in the art, is an indirect technique that rapidly measures, i.e. within 5 days, the effect of a given product on the overall cell growth. This test measures the number of metabolically active living cells that are able to transform the MTT product (3-(4,5-dimethylthiazol-2-yl)-2,5 diphenyl tetrazolium bromide), having a yellowish color, to the blue product formazan dye by mitochondrial reduction. The amount of formazan obtained at the end of the experiment is measured with a spectrophotometer and is directly proportional to the number of living cells. Determination of the optical density enables a quantitative measurement of the effect of the investigated compounds as compared to the control condition (untreated cells) and to compare it to other reference compound. In the following examples different compounds according to the invention were tested and compared to the reference compound being UBS881.
# Six human cancer cell lines, described in Table D, were tested in the presence of the extract according to the invention. These cell lines represent four histological cancer types, being glioma cancer (cell line Hs683 and U-373 MG), colon cancer (cell lineHCT-15 and LoVo), lung cancer (cell line A549) and bladder cancer (cell line J82). […]
# After 72 hours of incubation at 37° C. with the compound (experimental conditions) or without the compound (control condition), the medium was replaced by 100 μl MTT at the concentration of 1 mg/ml dissolved in RPMI. […] The micro wells were shaken for 5 minutes and read on a spectrophotometer at the wavelengths of 570 nm corresponding to the maximum formazan absorbance wavelength, and of 630 nm, which is the background noise wavelength.
# For each experimental condition, the mean OD associated with the SEM (standard error of the mean) for each condition (6 wells) was calculated. The percentage of remaining living cells in comparison with the control was calculated. […]
# [6] = for 24 hours on the 25% of most motile cells, at 10^−7 M
structure (smiles),measurement,setting,value
COc1ccc(OC)c(C2CC3C4CC=C5CC(OC6O[C@H](CO)[C@@H](O[C@@H]7O[C@H](CO)[C@@H](O)[C@H](O)[C@H]7O)[C@H](O)[C@H]6O)CCC5(C)C4CCC3(C)C2C(C)=O)c1 (some centres unmarked) [UBS3327],Max. effects (anti-migratory effect),"[1]; for 24 hours on the 25% of most motile cells, at 10^−8 M",−34%/p < 0.001
same,Max. effects (anti-migratory effect),[2],−21%/p < 0.001
same,migration level of cancer cells,[3],induced a decrease in the migration level
COc1ccc(OC)c(C2CC3C4CC(=O)C5=CC(=O)CCC5(C)C4CCC3(C)C2C(C)=O)c1 (centres unmarked) [UBS1664],Max. effects (anti-migratory effect),"[1]; for 12 hours on the entire cell population, at 10^−7 M",−15%/p < 0.05
same,Max. effects (anti-migratory effect),[4]; [6],−27%/p < 0.001
same,migration level of cancer cells,[3],induced a decrease in the migration level
same,cytotoxic / anti-tumor activity on the 6 tested cell lines,[5],induced cytotoxic activity on all 6 tested cell lines
COc1ccc(OC)c(C(C)(O)C2CCC3C4CC=C5CC(O)CCC5(C)C4CCC32C)c1 (centres unmarked) [UBS1740],cytotoxic / anti-tumor activity on the 6 tested cell lines,[5],Hs683 and A549 cell lines were most sensitive
COc1ccc(OC)c(C2CC3C4CC=C5CC(OC6O[C@H](CO[C@@H]7O[C@H](CO)[C@@H](O)[C@H](O)[C@H]7O)[C@@H](O)[C@H](O)[C@H]6O)CCC5(C)C4CCC3(C)C2C(C)=O)c1 (some centres unmarked) [UBS3328],Max. effects (anti-migratory effect),[1]; [6],−40%/p < 0.001
same,Max. effects (anti-migratory effect),"[4]; for 12 hours on the entire cell population, at 10^−10 M",−27%/p < 0.001
same,migration level of cancer cells,[3],induced a decrease in the migration level
COc1ccc(OC)c(C(C)(O)C2CCC3C4CC(=O)C5=CC(=O)CCC5(C)C4CCC32C)c1 (centres unmarked) [UBS1819],IC50,"[5]; Homo sapiens, 72 hours incubation, range over all 6 cell lines",10 to 50 µM
COc1ccc(OC)c(C2CC3C4CC=C5CC(OC6O[C@H](CO)[C@H](O)[C@H](O)[C@H]6O)CCC5(C)C4CCC3(C)C2C(C)=O)c1 (some centres unmarked) [UBS3285],Max. effects (anti-migratory effect),"[4]; for 24 hours on the 50% of most motile cells, at 10^−8 M",−22%/p < 0.001
same,migration level of cancer cells,[3],induced a decrease in the migration level

# Reference: patent US20060149045A1, “Steroid compounds with anti-tumor activity” (priority 2002, published 2006)
